Earlier results as cited in patent US20200057081A1, “System and Method for Managing Animal Cancers by Disabling the Cancer Cells Ability to Reproduce” (priority 2018, published 2020).

Tests used:
[1] = test system: tumors transplanted to mice
dynamin GTPase = target: T1, dynamin GTPase (Homo sapiens, UniProt O00429); settings: in mammalian cells; read-out: IC50, inhibition of mitochondrial division / dynamin GTPase activity
T1 construct: host or cells: mammalian cells (not specified)

mitochondria = settings: Bid-activated, Bax/Bak-dependent, in vitro
Drp1/Fis1 interaction = Drp1/Fis1 interaction (Homo sapiens, UniProt O00429)
Drp1/Fis1 interaction, sequence (O00429 whole entry): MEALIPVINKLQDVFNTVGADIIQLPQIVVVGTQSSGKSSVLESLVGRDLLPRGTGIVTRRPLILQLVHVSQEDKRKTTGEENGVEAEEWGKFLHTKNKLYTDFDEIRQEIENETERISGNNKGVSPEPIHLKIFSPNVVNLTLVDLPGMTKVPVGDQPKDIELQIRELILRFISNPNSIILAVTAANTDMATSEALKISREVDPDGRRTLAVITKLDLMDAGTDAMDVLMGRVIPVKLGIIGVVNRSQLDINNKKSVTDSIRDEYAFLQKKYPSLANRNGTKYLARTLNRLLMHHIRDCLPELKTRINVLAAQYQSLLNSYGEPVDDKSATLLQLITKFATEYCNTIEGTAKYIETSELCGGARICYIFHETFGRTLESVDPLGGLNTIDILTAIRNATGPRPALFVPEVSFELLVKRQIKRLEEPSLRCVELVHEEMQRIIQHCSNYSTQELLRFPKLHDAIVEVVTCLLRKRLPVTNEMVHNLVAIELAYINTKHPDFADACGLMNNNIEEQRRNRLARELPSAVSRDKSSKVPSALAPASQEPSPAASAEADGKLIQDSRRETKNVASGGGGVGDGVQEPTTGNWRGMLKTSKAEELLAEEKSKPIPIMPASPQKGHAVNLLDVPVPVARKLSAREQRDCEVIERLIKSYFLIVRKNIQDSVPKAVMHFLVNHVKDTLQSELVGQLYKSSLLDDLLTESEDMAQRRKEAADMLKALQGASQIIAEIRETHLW

[2] = test system: cultured cancer cell lines; settings: multiple cell lines

T1 sequence (O00429 whole entry): as above

## O=C(O)C(=O)CBr [3-bromopyruvate]
[1]
  tumor growth: slow down the growth

## COc1cc(-n2c(=S)[nH]c3ccccc3c2=O)c(Cl)cc1Cl [Mdivi 1]
Dynamin GTPase
  IC50: ~50 µM
mitochondria
  cytochrome c release from mitochondria: block Bid-activated Bax/Bak-dependent cytochrome c release

## P110: polypeptide P110, DLLPRGT, inhibitor of Drp1
Drp1/Fis1 interaction
  selectivity for Drp1/Fis1 interaction over Drp1 interaction with other ligands: more selective for blocking Drp1/Fis1 interaction

## CC1=C2C[C@H]3[C@@H](CC=C4C[C@@H](O)CC[C@@]43C)[C@@H]2CC[C@]12O[C@@H]1C[C@H](C)CN[C@H]1[C@H]2C [Cyc]
[2]
  anti-proliferative effect: modest anti-proliferative effect

## CN(C)c1ccc(C2Nc3ccc4ccccc4c3C3=C2C(=O)CC(C)(C)C3)cc1Br (stereo not shown) [compound 968]
Cancer cells; cancer cells
  inhibition of cancer cell growth: highly specific for inhibiting cancer cell growth
Cancer cells; normal (nontransformed) cells
  effect on normal cells: little effect

## CS(=O)(=O)c1ccc(C(=O)Nc2ccc(Cl)c(-c3ccccn3)c2)c(Cl)c1 [GDC-0449]
[2]
  anti-proliferative effect: modest anti-proliferative effect

## C=C1CC[C@H](O)C/C1=C/C=C1\CCC[C@]2(C)[C@@H]([C@H](C)CCCC(C)C)CC[C@@H]12 [VD3]
[2]
  anti-proliferative effect: modest anti-proliferative effect

## Cc1ncc(C[n+]2csc(CCO)c2C)c(=O)[nH]1 [oxythiamine]
[1]
  tumor growth: slow down the growth
